Like-named read-outs stand apart in the source and are kept apart here.
Columns and labels:
human CB1 receptor = human CB1 receptor (Homo sapiens, UniProt P21554); assay: CB1 receptor human binding assay ([3H]SR141716A, transfected HEK-293 T membranes); conditions: human CB1, HEK-293 T membranes; for Ki: read-out: Binding Human pKi (converted)
native CB1 receptors = native CB1 receptors (Rattus norvegicus, UniProt P20272); assay: CB1 receptor rat binding assay ([3H]SR141716A, rat brain membranes)
[1] = Clearance study, liver microsomes (human); conditions: pH 7.4
[2] = Clearance study, liver microsomes (mice); conditions: mouse, pH 7.4
[3] = Clearance study, liver microsomes (rats); conditions: rat, pH 7.4
[4] = rat brain membranes, [3H]SR141716A
[5] = rat brain membranes, [3H]SR141716A, read-out: Binding rat pKi (converted)

human CB1 receptor, sequence (P21554 whole entry): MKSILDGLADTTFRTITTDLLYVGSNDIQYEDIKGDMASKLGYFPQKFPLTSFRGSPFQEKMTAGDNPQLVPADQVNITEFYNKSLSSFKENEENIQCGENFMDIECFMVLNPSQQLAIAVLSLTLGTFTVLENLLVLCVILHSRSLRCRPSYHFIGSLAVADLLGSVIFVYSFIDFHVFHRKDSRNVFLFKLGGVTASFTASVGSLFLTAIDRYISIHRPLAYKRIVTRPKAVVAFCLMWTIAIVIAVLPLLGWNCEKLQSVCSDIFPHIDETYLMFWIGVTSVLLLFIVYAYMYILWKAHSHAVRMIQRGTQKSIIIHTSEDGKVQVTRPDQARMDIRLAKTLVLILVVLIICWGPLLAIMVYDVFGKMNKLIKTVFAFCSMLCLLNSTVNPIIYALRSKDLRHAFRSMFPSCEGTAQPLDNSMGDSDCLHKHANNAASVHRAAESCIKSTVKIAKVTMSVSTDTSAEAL
native CB1 receptors, sequence (P20272 whole entry): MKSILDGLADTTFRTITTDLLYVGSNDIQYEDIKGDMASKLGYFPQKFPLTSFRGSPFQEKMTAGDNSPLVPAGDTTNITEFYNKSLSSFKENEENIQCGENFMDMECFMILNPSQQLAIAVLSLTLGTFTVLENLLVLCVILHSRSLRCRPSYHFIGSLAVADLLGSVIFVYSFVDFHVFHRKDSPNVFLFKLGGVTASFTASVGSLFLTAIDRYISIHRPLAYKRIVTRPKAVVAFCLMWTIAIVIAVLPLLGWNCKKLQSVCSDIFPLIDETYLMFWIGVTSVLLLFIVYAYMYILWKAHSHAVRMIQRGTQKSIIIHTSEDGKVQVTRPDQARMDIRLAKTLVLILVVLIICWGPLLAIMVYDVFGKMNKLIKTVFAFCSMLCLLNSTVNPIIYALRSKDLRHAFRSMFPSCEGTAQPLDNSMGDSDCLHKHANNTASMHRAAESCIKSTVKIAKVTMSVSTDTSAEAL

SMILES | Binding Human Inh % (human CB1 receptor) | Ki (human CB1 receptor) | Binding rat Inh % (native CB1 receptors; [4]) | Ki (native CB1 receptors; [5]) | Ki (native CB1 receptors) | microsomal CLint at 1 μM [1] | microsomal CLint at 1 μM [2] | microsomal CLint at 1 μM [3]
O=C(NCCCC(F)(F)F)c1ccc2c(c1)N=C(c1ccc(Cl)cc1F)c1ccccc1S2 [drawing 1175] | 92% | 0.0794 nM | 87% | 0.501 nM | – | – | – | –
O=C(NCCCC(F)(F)F)c1ccc2c(c1)N=C(c1ccc(Cl)s1)c1ccccc1S2 [drawing 1176] | 87% | 0.158 nM | 91% | 0.501 nM | – | – | – | –
CC(C)CNC(=O)c1ccc2c(c1)N=C(c1ccc(Cl)cc1)c1ccc(F)cc1S2 [drawing 1177] | 93% | 0.158 nM | 89% | 3.98 nM | – | – | – | –
O=C(NCc1cccs1)c1ccc2c(c1)N=C(c1ccc(F)cc1)c1ccccc1S2 [drawing 1178] | 76% | 0.2 nM | 97% | 1.58 nM | – | – | – | –
CCCCNC(=O)c1ccc2c(c1)N=C(c1ccc(Cl)cc1)c1ccc(F)cc1S2 [drawing 1184] | 94% | 0.251 nM | 98% | 2.51 nM | – | – | – | –
CC(C)CCNC(=O)c1ccc2c(c1)N=C(c1cccc(Cl)c1)c1ccccc1S2 [drawing 1185] | 86% | 0.251 nM | 89% | 1 nM | – | – | – | –
COc1cccc(C2=Nc3cc(C(=O)NCCCC(F)(F)F)ccc3Sc3ccccc32)n1 [drawing 1186] | 84% | 0.316 nM | 87% | 10 nM | – | – | – | –
CCCCNC(=O)c1ccc2c(c1)N=C(c1ccc(Cl)s1)c1ccccc1S2 [drawing 1191] | 90% | 0.316 nM | 101% | 2.51 nM | – | – | – | –
CC(C)CNC(=O)c1ccc2c(c1)N=C(c1ccc(Cl)c(Cl)c1)c1ccccc1S2 [drawing 1192] | 100% | 0.398 nM | 96% | 1.58 nM | – | – | – | –
COc1cccc(C2=Nc3cc(C(=O)NC4CCC(F)(F)CC4)ccc3Sc3ccccc32)n1 [drawing 1193] | 88% | 0.501 nM | 82% | 0.794 nM | – | – | – | –
O=C(NC1CCCCC1)c1ccc2c(c1)N=C(c1cccc(Cl)c1)c1ccccc1S2 [drawing 1194] | 107% | 0.631 nM | 80% | 1.26 nM | – | – | – | –
CC(C)CNC(=O)c1ccc2c(c1)N=C(c1ccc(Cl)cc1F)c1ccccc1S2 [drawing 1199] | 77% | 0.631 nM | 94% | 5.01 nM | – | – | – | –
CC(C)CNC(=O)c1ccc2c(c1)N=C(c1ccc(Cl)s1)c1ccc(Cl)cc1S2 [drawing 1200] | 92% | 0.631 nM | 100% | 5.01 nM | – | – | – | –
O=C(NC1CCCCC1)c1ccc2c(c1)N=C(c1ccc(F)cc1)c1ccccc1S2 [drawing 1202] | 87% | 1.26 nM | 84% | 3.16 nM | – | – | – | –
O=C(NN1CCCCC1)c1ccc2c(c1)N=C(c1ccc(F)cc1)c1ccccc1S2 [drawing 1207] | 87% | 1.26 nM | 103% | 10 nM | – | – | – | –
O=C(NN1CCCCCC1)c1ccc2c(c1)N=C(c1ccc(Cl)s1)c1ccccc1S2 [drawing 1208] | 96% | 1.58 nM | 93% | 5.01 nM | – | – | – | –
O=C(NN1CCCCCC1)c1ccc2c(c1)N=C(c1cccc(Cl)c1)c1ccccc1S2 [drawing 1209] | 94% | 1.58 nM | 87% | 2 nM | – | – | – | –
CCCNC(=O)c1ccc2c(c1)N=C(c1ccc(Cl)cc1)c1ccccc1S2 [drawing 1210] | 74% | 2 nM | 95% | 6.31 nM | – | – | – | –
O=C(NN1CCCCCC1)c1ccc2c(c1)N=C(c1cccc(F)c1)c1ccccc1S2 [drawing 1215] | 103% | 2 nM | 97% | 6.31 nM | – | – | – | –
O=C(NN1CCCCC1)c1ccc2c(c1)N=C(C1CCCCC1)c1ccccc1S2 [drawing 1216] | 65% | 2 nM | 94% | – | 5.01 nM | – | – | –
CC(C)CNC(=O)c1ccc2c(c1)N=C(c1ccccn1)c1ccccc1S2 [drawing 1217] | 89% | 6.31 nM | 79% | 158 nM | – | – | – | –
COCCNC(=O)c1ccc2c(c1)N=C(c1ccc(Cl)s1)c1ccccc1S2 [drawing 1218] | 94% | 20 nM | 80% | 50.1 nM | – | – | – | –
CCCCNC(=O)c1ccc2c(c1)N=C(c1ccc(F)cn1)c1ccccc1S2 [drawing 1752] | – | – | – | – | – | 56 µL/min/mg | 668 µL/min/mg | 264 µL/min/mg
O=C(NCc1cccnc1)c1ccc2c(c1)N=C(c1ccc(Cl)cc1)c1ccccc1S2 [drawing 1756] | – | – | – | – | – | 41 µL/min/mg | 92 µL/min/mg | 80 µL/min/mg
O=C(NC1CCCCC1)c1ccc2c(c1)N=C(c1cccc(F)c1)c1ccccc1S2 [drawing 1757] | – | – | – | – | – | 29 µL/min/mg | 176 µL/min/mg | 90 µL/min/mg
